The source of these data is patent publication US20080045582A1, “ENA-78 Gene Polymorphisms and Protein Concentrations as Diagnostic and Prognostic Tools” (priority 2006, published 2008).

The test relates to G-CSF. Put plainly: G-CSF production by non-stimulated human umbilical vein endothelial cells, multiplex protein measurement. It is filed as cell-based. As to conditions: atorvastatin 1-50 μM, 24 hours, FIG. 12. The protocol: Human umbilical vein endothelial cells were obtained (Clonetics Cell Systems; Cambrex Bio Science Walkersville, Inc., Walkersville, Md.). Approximately 5×10^5 viable cells were seeded in endothelial cell growth-supplemented basal medium (EGM-2-endothelial cell medium-2; Cambrex Bio Science Walkersville, Inc.) and maintained at 37° C. under a 5% carbon dioxide atmosphere per manufacturer's protocol. The culture medium was changed 24 hours after seeding and every 48 hours thereafter until confluence. Cells were then treated with trypsin, seeded in a 48-well culture dish, and incubated under the conditions previously described. Cells used in this Example were from the third passage. […]
The culture-conditioned media protein content of epithelial neutrophil-activating peptide-78 (ENA-78), interleukin-8, (IL-8), monocyte chemotactic protein-1 (MCP-1), interleukin-6 (IL-6), interleukin-10 (IL-10), fibroblast growth factor (FGF), and granulocyte colony-stimulating factor (G-CSF) were measured by means of flow-based immunofluorescence multiplex detection (Fluorokine MAP Human Cytokine Panel; R&D Systems Inc., Minneapolis, Minn.) with the Luminex 100 IS platform (Luminex Corp., Austin, Tex.). […]

As to `CC(C)c1c(C(=O)Nc2ccccc2)c(-c2ccccc2)c(-c2ccc(F)cc2)n1CC[C@@H](O)C[C@@H](O)CC(=O)O` [atorvastatin], the “concentrations of G-CSF” value is on record as “did not change”.
